Patent US6143769A, “Phenylacetic acid benzylamides” (Karl Thomae GmbH, priority 1983, dated 2000)
Like-named read-outs stand apart in the source and are kept apart here.

Columns and labels:
blood sugar = assay: Blood sugar-lowering effect of the enantiomers in fasted female rats (oral); type: in vivo; conditions: 1.0 mg/kg p.o.
Description: The substances to be investigated were suspended in 1.5% methylcellulose immediately before the start of the test and administered into the oesophagus. […] Glucose was measured in the supernatant by the hexokinase method using an analytical photometer. The statistical evaluation was carried out using the Student's t-test with p=0.05 as the limit of significance. Table 1 which follows contains the statistically significant values as percentage deviations from the control: […]

clinical = conditions: human, plasma, 1 mg
Description: More specifically, the studies which follow were carried out on healthy male volunteers in whom the levels of glucose and active substance in the course of time were determined:
In the interests of more precise clarification, study 5 was carried out (randomised, open, crossover). […] 2 hours after administration a standard breakfast (B) was eaten, 5 hours after administration a standard lunch (L) was eaten and 10 hours after administration a standard dinner (D) was eaten. Blood samples were taken at different times. The glucose concentrations were measured in the plasma as in study 1. […] The plasma concentrations of AG-EE 624 ZW were calculated as the difference between the two concentrations found:

mice [1] = assay: Acute toxicity, single oral dose 2,000 mg/kg, mice; type: in vivo; conditions: 2,000 mg/kg p.o., 5 male and 5 female mice, 14 days
blood glucose = assay: Test for hypoglycemic activity in fasted female rats (oral); type: in vivo; conditions: Rattus norvegicus, po, read-out: Change in glucose content compared with control
Description: Blood samples were taken immediately before the administration of the test compound and 1, 2, 3 and 4 hours afterwards, in each case from the retroorbital Venous plexus. 50 μl of each sample were deproteinated with 0.5 ml of 0.33 N perchloric acid and centrifuged. The glucose in the supernatant fluid was measured using the hexokinase method with the aid of an analytical photometer. The statistical evaluation was made using the t-test according to Student with p=0.05 as the limit of significance.

mice [2] = assay: Acute toxicity of compound N, single oral dose, mice; type: in vivo; conditions: 14 days
Description: The toxic effect of a single dose of compound N administered orally (suspended in 1% methyl cellulose) was tested in male and female mice of our own strain weighing from 20-26 g over an observation period of 14 days.

Q: For `CCOc1cc(CC(=O)N[C@H](CC(C)C)c2ccccc2N2CCCCC2)ccc1C(=O)O` [AG-EE 624 ZW, (R)(-)-2-ethoxy-4-[N-[1-(2-piperidino-phenyl)-3-methyl-1-butyl]aminocarbonylmethyl]-benzoic acid], which “Glucose, percentage deviation from control” value (“Glucose, percentage deviation” for short) (blood sugar; 1 h) is on record?
A: n.s.

Q: And the “Glucose, percentage deviation” value (blood sugar; 2 h)?
A: n.s.

Q: What about the “Glucose, percentage deviation” value (blood sugar; 3 h) of the same compound?
A: n.s.

Q: What about the “Glucose, percentage deviation” value (blood sugar; 4 h) of the same compound?
A: n.s.

Q: And the MRT (clinical; iv)?
A: 3.3 ± 1.7 h

Q: What about the clearance (clinical; iv) of the same compound?
A: 75 ± 34 mL/min

Q: And the bioavailability (clinical; po)?
A: 83 ± 32%

Q: What does the source list for `CCOc1cc(CC(=O)NC(c2ccccc2)c2ccccc2N2CCCCC2)ccc1C(=O)O` (stereo not drawn) [D, 2-ethoxy-4-[N-(α-phenyl-2-piperidino-benzyl)-aminocarbonylmethyl]-benzoic acid]?
A: Deaths (mice [1]): only one animal in this group died; change in vivo at 1 mg/kg (blood glucose; 1 h): -42%; change in vivo at 1 mg/kg (blood glucose; 2 h): -54%; change in vivo at 1 mg/kg (blood glucose; 3 h): -37%; change in vivo at 1 mg/kg (blood glucose; 4 h): -34%

Q: For `CCOc1cc(CC(=O)NC(CC(C)C)c2ccccc2N2CCCCC2)ccc1C(=O)O` (racemic) [N, 2-ethoxy-4-[N-{1-(2-piperidino-phenyl)-3-methyl-1-butyl}-aminocarbonylmethyl]-benzoic acids], which Deaths (mice [2]; 1000 mg/kg p.o.) is on record?
A: 0 out of 6 animals died

Q: And the Approximate acute toxicity (mice [2]; p.o.)?
A: > 1000 mg/kg

Q: What about the change in vivo at 0.1 mg/kg (blood glucose; 1 h) of the same compound?
A: -38%

Q: What about the change in vivo at 0.1 mg/kg (blood glucose; 2 h) of the same compound?
A: -44%

Q: What about the change in vivo at 0.1 mg/kg (blood glucose; 3 h) of the same compound?
A: -41%

Q: What about the change in vivo at 0.1 mg/kg (blood glucose; 4 h) of the same compound?
A: -40%

Q: For `CCOc1cc(CC(=O)NC(c2ccccc2)c2ccc(C)cc2N2CCCCC2)ccc1C(=O)O` (stereo not drawn) [M, 2-ethoxy-4-[N-(4-methyl-α-phenyl1-2-piperidino-benzyl)-aminocarbonylmethyl]-benzoic acid], which change in vivo at 1 mg/kg (blood glucose; 1 h) is on record?
A: -44%

Q: And the change in vivo at 1 mg/kg (blood glucose; 2 h)?
A: -41%

Q: What about the change in vivo at 1 mg/kg (blood glucose; 3 h) of the same compound?
A: -35%

Q: And the change in vivo at 1 mg/kg (blood glucose; 4 h)?
A: -27%

Q: With `CCOc1cc(CC(=O)NC(C(=O)OC)c2ccccc2N2CCCCC2)ccc1C(=O)O` (stereo not drawn) [S, 2-ethoxy-4-[N-(α-methoxycarbonyl-2-piperidino-benzyl)-aminocarbonylmethyl]-benzoic acid] as the compound, how does the change in vivo at 1 mg/kg (blood glucose; 1 h) read?
A: -42%

Q: What about the change in vivo at 1 mg/kg (blood glucose; 2 h) of the same compound?
A: -35%

Q: What about the change in vivo at 1 mg/kg (blood glucose; 3 h) of the same compound?
A: -28%

Q: And the change in vivo at 1 mg/kg (blood glucose; 4 h)?
A: -18%
